Assay results as given in patent US12384749B2, “Onium salt of nitrogen-containing heteroaryl compound and pest control agent” (Nippon Soda Co., Ltd., priority 2019, dated 2025).

Columns and labels:
Type in all cases: in vivo
Spodoptera litura = assay: Efficacy test against Spodoptera litura (cabbage leaf dip); conditions: foliar, 144 h, 125 ppm by mass, cabbage leaf immersed 30 seconds, second-instar larvae, 25° C., humidity 60%, after six days
Description: (§1) 5 parts by mass of a compound of the present invention, 93.6 parts by mass of dimethylformamide, and 1.4 parts by mass of polyoxyethylene alkyl aryl ether were mixed and dissolved to obtain an emulsion (1) containing 5% by mass of the active ingredient.
The emulsion (I) was diluted with water such that the amount of the compound of the present invention became 125 ppm by mass. A cabbage leaf was immersed in the diluted solution for 30 seconds. The cabbage leaf was air-dried and then put in a petri dish, followed by leaving five second-instar larvae of Spodoptera litura therein. The petri dish was placed in a thermostatic chamber at a temperature of 25° C. and a humidity of 60%. After six days had passed from leaving the larvae, life or death was assessed and the mortality was calculated. The test was repeated twice.

Mythimna separata = assay: Efficacy test against Mythimna separata (treated artificial feed); conditions: 1 μl of emulsion (I) (5% by mass active ingredient) mixed with 0.8 g artificial feed; second-instar larvae; 25° C.; after five days
Text: as §1
(§2) 93.6 parts by mass of dimethylformamide, and 1.4 parts by mass of polyoxyethylene alkyl aryl ether were mixed and dissolved to obtain an emulsion (II).
0.8 g of commercially-available artificial feed (Insect LFS, manufactured by Nosan Corporation) and 1 μl of the emulsion (I) were mixed well, and then 0.2 g of the mixture per treated area was packed into plastic test containers (each having a capacity of 1.4 ml) as test feeds.
Two second-instar larvae of Mythimna separata were left per treated area, and then the test containers were sealed with plastic covers. The test containers were placed in a thermostatic chamber at 25° C., and, after five days had passed therefrom, the mortality and the feed intake were measured. The test was repeated twice.
(§3) In addition, the test was conducted under the same conditions as described above, except that the emulsion (II) was used instead of the emulsion (I), and evaluated as a solvent control area.
The compounds A-2, A-3, A-4, A-9, A-10, A-11, A-15, and A-16 were subjected to an efficacy test against Mythimna separata. […] The mortality was calculated in accordance with the following equation. Mortality (%)=(Died insect number/Tested insect number)×100

Nilaparvata lugens = assay: Efficacy test against Nilaparvata lugens (rice seedling dip); conditions: 240 h, 125 ppm by mass, rice seedling immersed 30 seconds, second-instar larvae, 25° C., humidity 65%, after ten days
Description: as §1
The emulsion (I) was diluted with water such that the amount of the compound of the present invention became 125 ppm by mass. A rice seedling was immersed in the diluted solution for 30 seconds, air-dried, and then placed in a plastic case, followed by leaving five second-instar larvae of Nilaparvata lugens therein. The plastic case was placed in a thermostatic chamber at a temperature of 25° C. and a humidity of 65%. After ten days had passed therefrom, life or death was assessed and the mortality was calculated. The test was repeated twice.

Helicoverpa armigera = assay: Efficacy test against Helicoverpa armigera (cabbage leaf dip); conditions: foliar, 144 h, 125 ppm by mass, cabbage leaf immersed 30 seconds, second-instar larvae, 25° C., humidity 60%, after six days
Aphis gossypii = assay: Efficacy test against Aphis gossypii (spray on cucumber); conditions: 120 h, 125 ppm by mass sprayed on cucumber, first-instar larvae, 25° C., humidity 60%, after five days
Text: as §1
Cucumber was sown in a 3-sun pot. After ten days had passed from germination, a female adult of Aphis gossypii was left on the cucumber. On the next day, laid first-instar larvae were left, and the female adult was removed. The emulsion (I) was diluted with water such that the amount of the compound of the present invention became 125 ppm by mass. The diluted solution was sprayed on the cucumber. Then, the cucumber was placed in a thermostatic chamber at a temperature of 25° C. and a humidity of 60%. After five days had passed therefrom, life or death of Aphis gossypii was assessed and the mortality was calculated.

Tetranychus urticae = assay: Efficacy test against Tetranychus urticae (spray on kidney bean); conditions: 125 ppm by mass sprayed on kidney bean; female adults removed after three days; living number counted ten days after spraying; 25° C., humidity 65%
Text: as §1, §2
Five female adults of Tetranychus urticae were left on primary leaves of kidney bean planted in a 3-sun pot. The emulsion (I) was diluted with water such that the amount of the compound of the present invention became 125 ppm by mass. The diluted solution was sprayed on the kidney bean and evaluated as a treated area. The 3-sun pot was placed in a thermostatic chamber at a temperature of 25° C. and a humidity of 65%, and after three days had passed from spraying, the female adults of Tetranychus urticae were removed to leave only laid eggs remaining on the leaves. After ten days had passed from spraying, the number of living Tetranychus urticae was counted. The test was repeated twice.
as §3
The control ratio was calculated in accordance with the following equation. Control ratio (%)=100×[1−Nt/Nc] […]

| SMILES | mortality at 125 ppm (Spodoptera litura) | mortality or feed intake relative to the feed intake at the solvent control area (Mythimna separata) | also measured |
| --- | --- | --- | --- |
| O=C([N-][n+]1cnn(CC(F)(F)F)c1)c1ccc(-c2ccc(OC(F)(F)C(F)F)cc2)c(Cl)c1 [Compound A-4] | ≥ 80% | 100% mortality of Mythimna separata or 10% or less of the feed intake | – |
| O=C([N-][n+]1ccccn1)c1ccc(-c2ccc(OC(F)(F)C(F)F)cc2)nc1 [Compound A-2] | – | 100% mortality of Mythimna separata or 10% or less of the feed intake | – |
| O=C([N-][n+]1ccncc1)c1ccc(-c2ccc(OC(F)(F)F)cc2)cc1 [Compound A-15] | – | 100% mortality of Mythimna separata or 10% or less of the feed intake | – |
| O=C([N-][n+]1ccccn1)c1ccc(-c2ccc(OC(F)(F)C(F)F)cc2)cc1 [Compound A-11] | ≥ 80% | 100% mortality of Mythimna separata or 10% or less of the feed intake | mortality at 125 ppm (Nilaparvata lugens): ≥ 80% |
| Cn1cc[n+]([N-]C(=O)c2ccc(-c3ccc(OC(F)(F)F)cc3)cc2)c1 [Compound A-13] | ≥ 80% | – | – |
| Cn1cc[n+]([N-]C(=O)c2ccc(-c3ccc(OC(F)(F)C(F)F)cc3)cc2)c1 [Compound A-9] | ≥ 80% | 100% mortality of Mythimna separata or 10% or less of the feed intake | mortality at 125 ppm (Helicoverpa armigera): ≥ 90% |
| O=C([N-][n+]1ccsc1)c1ccc(-c2ccc(OC(F)(F)C(F)F)cc2)cc1 [Compound A-10] | – | 100% mortality of Mythimna separata or 10% or less of the feed intake | – |
| O=C([N-][n+]1ccccn1)c1ccc(-c2ccc(OC(F)(F)F)cc2)cc1 [Compound A-16] | – | 100% mortality of Mythimna separata or 10% or less of the feed intake | – |
| O=C([N-][n+]1ccncc1)c1ccc(C(F)(F)F)cc1 [Compound A-19] | – | – | mortality at 125 ppm (Aphis gossypii): ≥ 80% |
| O=C([N-][n+]1ccccn1)c1ccc(C(F)(F)F)cc1 [Compound A-18] | – | – | control ratio (Tetranychus urticae): ≥ 90% |
| O=C([N-][n+]1ccccn1)c1ccc(-c2ccc(OCC(F)(F)F)nc2)nc1 [Compound A-3] | – | 100% mortality of Mythimna separata or 10% or less of the feed intake | – |
